Experiment [1] deals with T1, PqqU (formerly YncD) (Escherichia coli, UniProt P76115).
T1 construct: 10xHis-tagged PqqU from pET-20b-pqqU, expressed in E. coli BL21 (DE3) C41, purified from membranes (DDM or LMNG), 76 kDa monomer; 700 residues in full, 39-699 modelled
T1 sequence (P76115 24-700): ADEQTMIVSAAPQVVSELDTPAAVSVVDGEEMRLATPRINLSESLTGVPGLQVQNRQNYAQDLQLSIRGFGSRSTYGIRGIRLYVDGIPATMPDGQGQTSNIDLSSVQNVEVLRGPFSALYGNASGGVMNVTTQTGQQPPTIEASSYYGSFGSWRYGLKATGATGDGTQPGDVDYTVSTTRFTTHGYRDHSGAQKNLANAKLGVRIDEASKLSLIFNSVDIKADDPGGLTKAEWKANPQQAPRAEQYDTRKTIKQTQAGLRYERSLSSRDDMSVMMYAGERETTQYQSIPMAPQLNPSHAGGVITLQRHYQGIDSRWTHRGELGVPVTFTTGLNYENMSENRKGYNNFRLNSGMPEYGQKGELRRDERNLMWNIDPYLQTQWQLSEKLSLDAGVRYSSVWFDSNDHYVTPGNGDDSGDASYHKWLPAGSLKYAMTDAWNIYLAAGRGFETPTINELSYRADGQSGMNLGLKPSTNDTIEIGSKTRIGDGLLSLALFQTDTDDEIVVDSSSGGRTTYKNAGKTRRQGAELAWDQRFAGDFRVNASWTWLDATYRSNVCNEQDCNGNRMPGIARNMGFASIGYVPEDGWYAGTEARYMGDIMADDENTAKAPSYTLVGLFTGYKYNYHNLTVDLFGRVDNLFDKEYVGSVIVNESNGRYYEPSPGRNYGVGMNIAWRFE
Briefly: isothermal titration calorimetry. The format is binding. To be noted: 50 mM tris-HCl pH 7.4, 150 mM NaCl; LMNG-purified, excess detergent removed; PQQ as disodium salt, oxidized; curve not accurately fitted, Kd only stated as low to subnanomolar range. Background: ITC needs no label: the signal is the heat of the interaction.

Experiment [2] addresses T1, PqqU (formerly YncD). Kind of experiment: cryo-EM structure of complex, […] Å. The format is binding. To be noted: 43 μM PqqU with 910 μM PQQ; LMNG micelle; single PQQ in internal extracellular-side cavity, loops 7 and 8 closed; no metal bound to PQQ.

The values that follow come from article PMC12124388, “High-affinity PQQ import is widespread in Gram-negative bacteria” (Science Advances, 2025).

Turning to `O=C(O)c1cc(C(=O)O)c2c(n1)C(=O)C(=O)c1cc(C(=O)O)[nH]c1-2` [PQQ], in experiment [1], the Kd entry is “likely with a Kd in the low to subnanomolar range”. The “cryo-EM structure of complex, 1.99 Å” value in experiment [2] was “we used cryo-EM to resolve the structure of the PqqU-PQQ complex”.
